The structures appear in SMILES notation. Structures can show the parent of a compound that is named as a salt.

CDK12/CycK, sequence (Q9NYV4 whole entry): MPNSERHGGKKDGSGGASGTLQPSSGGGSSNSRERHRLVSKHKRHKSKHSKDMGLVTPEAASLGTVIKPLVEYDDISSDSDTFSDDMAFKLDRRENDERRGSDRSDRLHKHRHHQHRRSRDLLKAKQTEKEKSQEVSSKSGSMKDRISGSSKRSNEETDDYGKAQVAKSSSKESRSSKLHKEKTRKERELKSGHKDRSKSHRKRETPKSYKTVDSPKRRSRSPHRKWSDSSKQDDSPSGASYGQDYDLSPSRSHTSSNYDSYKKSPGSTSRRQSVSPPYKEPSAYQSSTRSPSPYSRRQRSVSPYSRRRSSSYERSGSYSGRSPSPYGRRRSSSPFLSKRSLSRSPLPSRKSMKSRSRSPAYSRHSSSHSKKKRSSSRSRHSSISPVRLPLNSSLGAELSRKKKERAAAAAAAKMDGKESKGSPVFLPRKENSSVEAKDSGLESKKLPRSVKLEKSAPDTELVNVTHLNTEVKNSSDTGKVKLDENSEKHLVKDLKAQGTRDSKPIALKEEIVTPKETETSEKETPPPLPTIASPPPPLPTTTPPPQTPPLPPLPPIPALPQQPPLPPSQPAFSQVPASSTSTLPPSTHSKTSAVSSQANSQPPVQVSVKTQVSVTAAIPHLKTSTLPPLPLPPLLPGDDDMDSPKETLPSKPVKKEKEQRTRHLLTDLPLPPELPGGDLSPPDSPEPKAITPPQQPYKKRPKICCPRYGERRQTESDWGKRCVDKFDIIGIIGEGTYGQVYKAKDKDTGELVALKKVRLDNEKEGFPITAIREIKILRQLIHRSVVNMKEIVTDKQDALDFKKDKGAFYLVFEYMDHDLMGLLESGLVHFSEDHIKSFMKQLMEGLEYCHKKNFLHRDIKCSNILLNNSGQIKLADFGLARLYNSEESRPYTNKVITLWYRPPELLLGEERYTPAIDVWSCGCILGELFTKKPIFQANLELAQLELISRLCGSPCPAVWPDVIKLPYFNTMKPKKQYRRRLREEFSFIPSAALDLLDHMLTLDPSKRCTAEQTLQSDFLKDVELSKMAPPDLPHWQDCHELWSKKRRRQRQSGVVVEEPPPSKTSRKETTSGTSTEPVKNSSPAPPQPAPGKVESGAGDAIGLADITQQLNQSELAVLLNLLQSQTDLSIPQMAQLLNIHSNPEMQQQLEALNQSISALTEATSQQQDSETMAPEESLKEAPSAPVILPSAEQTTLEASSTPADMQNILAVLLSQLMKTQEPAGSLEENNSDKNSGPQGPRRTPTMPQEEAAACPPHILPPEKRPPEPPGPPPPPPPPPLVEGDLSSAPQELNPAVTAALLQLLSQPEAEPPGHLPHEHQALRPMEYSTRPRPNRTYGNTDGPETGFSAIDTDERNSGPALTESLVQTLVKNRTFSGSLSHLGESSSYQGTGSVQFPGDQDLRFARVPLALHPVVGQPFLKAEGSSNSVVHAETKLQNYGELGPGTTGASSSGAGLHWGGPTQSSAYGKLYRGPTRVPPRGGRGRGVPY
CDK12/CycK, sequence (O75909 whole entry partner): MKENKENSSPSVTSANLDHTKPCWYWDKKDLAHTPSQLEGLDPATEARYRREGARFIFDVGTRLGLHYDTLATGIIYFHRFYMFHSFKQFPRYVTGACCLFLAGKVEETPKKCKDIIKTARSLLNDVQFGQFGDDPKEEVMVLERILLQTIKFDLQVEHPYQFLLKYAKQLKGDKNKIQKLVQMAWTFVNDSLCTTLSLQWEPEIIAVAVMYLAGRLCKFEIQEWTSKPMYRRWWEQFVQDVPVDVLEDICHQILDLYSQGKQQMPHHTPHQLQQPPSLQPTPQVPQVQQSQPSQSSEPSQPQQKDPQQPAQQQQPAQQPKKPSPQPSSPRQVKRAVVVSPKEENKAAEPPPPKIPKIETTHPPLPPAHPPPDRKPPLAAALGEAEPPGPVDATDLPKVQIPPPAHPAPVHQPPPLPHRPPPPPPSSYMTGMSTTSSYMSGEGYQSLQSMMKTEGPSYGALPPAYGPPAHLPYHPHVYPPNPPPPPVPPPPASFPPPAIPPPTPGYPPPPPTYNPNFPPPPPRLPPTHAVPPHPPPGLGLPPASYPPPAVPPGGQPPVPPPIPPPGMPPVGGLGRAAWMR

The experiment addresses CDK12/CycK (Homo sapiens, UniProt Q9NYV4). Kind of experiment: Inhibition of CDK12 (ADP-Glo kinase assay). Type of experiment: biochemical. To be noted: 60 nM CDK12/CycK, 30 minutes pre-incubation, 1 μM ATP, 0.5 μM RBER-IRStide substrate, 1 h at 25° C., read-out: CDK12/cyclin K IC50. The essentials:
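ADP-Glo luminescence read after a 1 h, 25 °C reaction with 1 μM ATP and 0.5 μM RBER-IRStide peptide. Enzyme (60 nM) and compound were first pre-incubated 30 min; buffer 50 mM HEPES pH 7.5, 20 mM MgCl2, 3 mM MnCl2, 1% DMSO. IC50 fitted after blank subtraction.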
For orientation: ADP-Glo first removes unused ATP, then detects ADP through luciferase.
`C=CC(=O)Nc1ccc(C(=O)N2CC[C@H](c3cc4c(-c5cnn6ncccc56)ccnc4[nH]3)C2)cc1` [Example 150]: the IC50 is under 100 nM.

Take `C=CC(=O)NCC(=O)N1CCC(c2cc3c(-c4cnn5ncccc45)ccnc3[nH]2)C1` (stereo not shown) [Example 152, N-(2-Oxo-2-(3-(4-(pyrazolo[1,5-b]pyridazin-3-yl)-1H-pyrrolo[2,3-b]pyridin-2-yl)pyrrolidin-1-yl)ethyl)acrylamide]: the IC50 was under 100 nM.

Regarding `C=CC(=O)N1CCC[C@H]1C(=O)N1CCC(c2cc3c(-c4cnn5ncccc45)ccnc3[nH]2)C1` (stereo partly drawn) [Example 153, 1-((2S)-2-(3-(4-(Pyrazolo[1,5-b]pyridazin-3-yl)-1H-pyrrolo[2,3-b]pyridin-2-yl)pyrrolidine-1-carbonyl)pyrrolidin-1-yl)prop-2-en-1-one], the IC50 is under 100 nM.

Consider `C=CC(=O)N1CCC[C@@H]1C(=O)N1CCC(c2cc3c(-c4cnn5ncccc45)ccnc3[nH]2)C1` (stereo partly drawn) [Example 154, 1-((2R)-2-(3-(4-(Pyrazolo[1,5-b]pyridazin-3-yl)-1H-pyrrolo[2,3-b]pyridin-2-yl)pyrrolidine-1-carbonyl)pyrrolidin-1-yl)prop-2-en-1-one], for which the IC50 was under 100 nM.

`O=C([C@@H]1CCCN1C(=O)CCl)N1CCC(c2cc3c(-c4cnn5ncccc45)ccnc3[nH]2)C1` (stereo partly drawn) [Example 155, 2-Chloro-1-((2S)-2-(3-(4-(pyrazolo[1,5-b]pyridazin-3-yl)-1H-pyrrolo[2,3-b]pyridin-2-yl)pyrrolidine-1-carbonyl)pyrrolidin-1-yl)ethan-1-one]: the IC50 is under 100 nM.

With `O=C(CCl)NCC(=O)N1CCC(c2cc3c(-c4cnn5ncccc45)ccnc3[nH]2)C1` (stereo not shown) [Example 157, 2-Chloro-N-(2-oxo-2-(3-(4-(pyrazolo[1,5-b]pyridazin-3-yl)-1H-pyrrolo[2,3-b]pyridin-2-yl)pyrrolidin-1-yl)ethyl)acetamide], the IC50 is under 100 nM.

On to `O=C(CCl)N1CCC(C(=O)N2CCC(c3cc4c(-c5cnn6ncccc56)ccnc4[nH]3)C2)CC1` (stereo not shown) [Example 158, 2-Chloro-1-(4-(3-(4-(pyrazolo[1,5-b]pyridazin-3-yl)-1H-pyrrolo[2,3-b]pyridin-2-yl)pyrrolidine-1-carbonyl)piperidin-1-yl)ethan-1-one], for which the IC50 was under 100 nM.

As to `C=CC(=O)N1CCC[C@H]1C(=O)N1CC[C@H](c2cc3c(-c4cnn5ncccc45)ccnc3[nH]2)C1` [Example 162, 1-((S)-2-((S)-3-(4-(Pyrazolo[1,5-b]pyridazin-3-yl)-1H-pyrrolo[2,3-b]pyridin-2-yl)pyrrolidine-1-carbonyl)pyrrolidin-1-yl)prop-2-en-1-one], the IC50 was under 100 nM.

In the case of `COCCC(=O)Nc1ccccc1C(=O)N1CCC(c2cc3c(-c4cnn5ncccc45)ccnc3[nH]2)C1` (stereo not shown) [Example 163, 3-Methoxy-N-(2-(3-(4-(pyrazolo[1,5-b]pyridazin-3-yl)-1H-pyrrolo[2,3-b]pyridin-2-yl)pyrrolidine-1-carbonyl)phenyl)propanamide Formate Salt], the IC50 is under 100 nM.

On to `C=CC(=O)N1CCOC[C@H]1C(=O)NCCc1cc2c(-c3cnn4ncccc34)ccnc2[nH]1` [Example 165, (S)-4-Acryloyl-N-(2-(4-(pyrazolo[1,5-b]pyridazin-3-yl)-1H-pyrrolo[2,3-b]pyridin-2-yl)ethyl)morpholine-3-carboxamide], for which the IC50 is under 100 nM.

In the case of `O=C(NCCc1cc2c(-c3cnn4ncccc34)ccnc2[nH]1)[C@@H]1CCCN1C(=O)C1=CCCC1` [Example 166, (S)-1-(Cyclopent-1-ene-1-carbonyl)-N-(2-(4-(pyrazolo[1,5-b]pyridazin-3-yl)-1H-pyrrolo[2,3-b]pyridin-2-yl)ethyl)pyrrolidine-2-carboxamide], the IC50 was in the range of 100 to 1000 nM.

In the case of `CN1CCC(OCc2cc3c(-c4cnn5ncccc45)ccnc3[nH]2)CC1` [Example 167, 3-(2-(((1-Methylpiperidin-4-yl)oxy)methyl)-1H-pyrrolo[2,3-b]pyridin-4-yl)pyrazolo[1,5-b]pyridazine diformate], the IC50 is 1000 to 30000 nM.

As to `CN(C)CCOCc1cc2c(-c3cnn4ncccc34)ccnc2[nH]1` [Example 168, N,N-Dimethyl-2-((4-(pyrazolo[1,5-b]pyridazin-3-yl)-1H-pyrrolo[2,3-b]pyridin-2-yl)methoxy)ethan-1-amine Formate], the IC50 was 1000 to 30000 nM.

As for `O=C(CCl)Nc1ccccc1C(=O)N1CCC(c2cc3c(-c4cnn5ncccc45)ccnc3[nH]2)C1` (stereo not shown) [Example 169, 2-Chloro-N-(2-(3-(4-(pyrazolo[1,5-b]pyridazin-3-yl)-1H-pyrrolo[2,3-b]pyridin-2-yl)pyrrolidine-1-carbonyl)phenyl)acetamide], the IC50 was under 100 nM.

On to `CCC(=O)Nc1cccc(C(=O)N2CCC(c3cc4c(-c5cnn6ncccc56)ccnc4[nH]3)C2)c1` (stereo not shown) [Example 173, N-(3-(3-(4-(Pyrazolo[1,5-b]pyridazin-3-yl)-1H-pyrrolo[2,3-b]pyridin-2-yl)pyrrolidine-1-carbonyl)phenyl)propionamide], for which the IC50 was under 100 nM.

Consider `C=CC(=O)N1CC[C@H](C(=O)NCc2cc3c(-c4cnn5ncccc45)ccnc3[nH]2)C1` [Example 178, (S)-1-Acryloyl-N-((4-(pyrazolo[1,5-b]pyridazin-3-yl)-1H-pyrrolo[2,3-b]pyridin-2-yl)methyl)pyrrolidine-3-carboxamide], for which the IC50 lay in the range of 1000 to 30000 nM.

On to `C=CC(=O)N1CC[C@@H](C(=O)NCc2cc3c(-c4cnn5ncccc45)ccnc3[nH]2)C1` [Example 179, (R)-1-Acryloyl-N-((4-(pyrazolo[1,5-b]pyridazin-3-yl)-1H-pyrrolo[2,3-b]pyridin-2-yl)methyl)pyrrolidine-3-carboxamide], for which the IC50 was in the range of 1000 to 30000 nM.

For `C=CC(=O)Nc1cccc(C(=O)NCc2cc3c(-c4cnn5ncccc45)ccnc3[nH]2)c1` [Example 180, 3-Acrylamido-N-((4-(pyrazolo[1,5-b]pyridazin-3-yl)-1H-pyrrolo[2,3-b]pyridin-2-yl)methyl)benzamide], the IC50 lay in the range of 100 to 1000 nM.

For `CN(C)C/C=C/C(=O)Nc1ccc(C(=O)NCc2cc3c(-c4cnn5ncccc45)ccnc3[nH]2)cc1` [Example 181], the IC50 lay within 100 to 1000 nM.

On to `C=CC(=O)N1CCC[C@@H]1C(=O)NCc1cc2c(-c3cnn4ncccc34)ccnc2[nH]1` [Example 182, (R)-1-Acryloyl-N-((4-(pyrazolo[1,5-b]pyridazin-3-yl)-1H-pyrrolo[2,3-b]pyridin-2-yl)methyl)pyrrolidine-2-carboxamide], for which the IC50 lay within 1000 to 30000 nM.

With `C=CC(=O)N1CCC[C@H]1C(=O)NCc1cc2c(-c3cnn4ncccc34)ccnc2[nH]1` [Example 183, (S)-1-Acryloyl-N-((4-(pyrazolo[1,5-b]pyridazin-3-yl)-1H-pyrrolo[2,3-b]pyridin-2-yl)methyl)pyrrolidine-2-carboxamide], the IC50 was in the range of 1000 to 30000 nM.

Turning to `C=CC(=O)N1CCC[C@@H](C(=O)NCc2cc3c(-c4cnn5ncccc45)ccnc3[nH]2)C1` [Example 184, (R)-1-Acryloyl-N-((4-(pyrazolo[1,5-b]pyridazin-3-yl)-1H-pyrrolo[2,3-b]pyridin-2-yl)methyl)piperidine-3-carboxamide], the IC50 was 1000 to 30000 nM.

On to `C=CC(=O)Nc1ccc(C(=O)N(C)Cc2cc3c(-c4cnn5ncccc45)ccnc3[nH]2)cc1` [Example 185, 4-Acrylamido-N-methyl-N-((4-(pyrazolo[1,5-b]pyridazin-3-yl)-1H-pyrrolo[2,3-b]pyridin-2-yl)methyl)benzamide], for which the IC50 was under 100 nM.

With `C=CC(=O)N1CCC[C@H](C(=O)NCc2cc3c(-c4cnn5ncccc45)ccnc3[nH]2)C1` [Example 186, (S)-1-Acryloyl-N-((4-(pyrazolo[1,5-b]pyridazin-3-yl)-1H-pyrrolo[2,3-b]pyridin-2-yl)methyl)piperidine-3-carboxamide], the IC50 lay within 1000 to 30000 nM.

For `C=CC(=O)N[C@H]1CC[C@@H](C(=O)NCc2cc3c(-c4cnn5ncccc45)ccnc3[nH]2)CC1` [Example 187, (1s,4s)-4-Acrylamido-N-((4-(pyrazolo[1,5-b]pyridazin-3-yl)-1H-pyrrolo[2,3-b]pyridin-2-yl)methyl)cyclohexane-1-carboxamide], the IC50 fell in the range of 1000 to 30000 nM.

For `CCC(=O)Nc1ccc(C(=O)NCc2cc3c(-c4cnn5ncccc45)ccnc3[nH]2)cc1` [Example 188, 4-Propionamido-N-((4-(pyrazolo[1,5-b]pyridazin-3-yl)-1H-pyrrolo[2,3-b]pyridin-2-yl)methyl)benzamide], the IC50 lay in the range of 1000 to 30000 nM.

For `C=CC(=O)NCc1ccc(C(=O)NCc2cc3c(-c4cnn5ncccc45)ccnc3[nH]2)cc1` [Example 189, 4-(Acrylamidomethyl)-N-((4-(pyrazolo[1,5-b]pyridazin-3-yl)-1H-pyrrolo[2,3-b]pyridin-2-yl)methyl)benzamide], the IC50 lay in the range of 1000 to 30000 nM.

As for `C=CC(=O)N(C)c1ccc(C(=O)NCc2cc3c(-c4cnn5ncccc45)ccnc3[nH]2)cc1` [Example 190, 4-(N-Methylacrylamido)-N-((4-(pyrazolo[1,5-b]pyridazin-3-yl)-1H-pyrrolo[2,3-b]pyridin-2-yl)methyl)benzamide], the IC50 was 100 to 1000 nM.

For `C=CC(=O)N[C@H]1CC[C@H](C(=O)NCc2cc3c(-c4cnn5ncccc45)ccnc3[nH]2)CC1` [Example 191, (1r,4r)-4-Acrylamido-N-((4-(pyrazolo[1,5-b]pyridazin-3-yl)-1H-pyrrolo[2,3-b]pyridin-2-yl)methyl)cyclohexane-1-carboxamide], the IC50 was 1000 to 30000 nM.

As for `C=CC(=O)NCc1cccc(C(=O)NCc2cc3c(-c4cnn5ncccc45)ccnc3[nH]2)c1` [Example 192, 3-(Acrylamidomethyl)-N-((4-(pyrazolo[1,5-b]pyridazin-3-yl)-1H-pyrrolo[2,3-b]pyridin-2-yl)methyl)benzamide], the IC50 was in the range of 1000 to 30000 nM.

As for `C=CC(=O)N1CCC(CC(=O)NCc2cc3c(-c4cnn5ncccc45)ccnc3[nH]2)CC1` [Example 193, 2-(1-Acryloylpiperidin-4-yl)-N-((4-(pyrazolo[1,5-b]pyridazin-3-yl)-1H-pyrrolo[2,3-b]pyridin-2-yl)methyl)acetamide], the IC50 was in the range of 1000 to 30000 nM.

The values are drawn from patent US11407767B2, “Heterocyclyl substituted pyrrolopyridines that are inhibitors of the CDK12 kinase” (The University of Nottingham, priority 2017, dated 2022).
